What all share (assay type): functional, cell-based
Assay [1] concerns A2780. The experiment in a line: Cytotoxicity against human A2780 cells assessed as cell survival after 96 hrs by SRB assay. The settings on record: A2780, 96 h. (In general: The SRB assay estimates cell density from bound dye.)
A short description of assay [2]: Cytotoxicity against human DLD1 cells assessed as cell survival after 96 hrs by SRB assay. To be noted: DLD-1, 96 h.
Assay [3] in a line: Cytotoxicity against human HCT8 cells assessed as cell survival after 96 hrs by SRB assay. The settings on record: HCT-8, 96 h.
The next assay relates to HT-29. In words: Cytotoxicity against human HT-29 cells assessed as cell survival after 96 hrs by SRB assay. The settings on record: HT-29, 96 h.
Assay [4] can be described thus: Cytotoxicity against human A253 cells assessed as cell survival after 96 hrs by SRB assay. To be noted: A253, 96 h.
Assay [5] relates to A2780. The experiment in a line: Induction of apoptosis in human A2780 cells assessed as DNA fragmentation at IC90 after 24 hrs by DNA-laddering assay.
Assay [6] has as its system A2780. The experiment in a line: Induction of apoptosis in human A2780 cells assessed as intact cell membrane at IC90 after 24 hrs by trypan blue exclusion assay.

Active and inactive are the calls of the source. The rule behind the calls is not given here.

Consider `C[C@H]1[C@H](C)CC[C@]2(C)CC[C@]3(C)C(=CC(=O)[C@@H]4[C@@]5(C)CC[C@@H](O)[C@](C)(C(=O)O)[C@@H]5CC[C@]43C)[C@H]12` [11-KETO BOSWELLIC ACID], for which the 50% inhibitory concentration (IC50) in the assay with A2780 [1] is 37.9 µM; in assay [2] it was 57.7 µM; in assay [3], 44.6 µM; with HT-29 it was 71.9 µM; in assay [4], 45.9 µM.
The corresponding values for `COC(=O)[C@]1(C)[C@@H]2CC[C@]3(C)[C@H](C(=O)C=C4[C@@H]5[C@@H](C)[C@H](C)CC[C@]5(C)CC[C@]43C)[C@@]2(C)CC1(O)C(=O)O` (some centres not stated) are 53.6 µM, 56.1 µM, 46.9 µM, 51.4 µM and 54.9 µM.
Consider `COC(=O)[C@@]1(C)[C@@H](C(=O)O)CC[C@@]2(C)[C@H]1CC[C@]1(C)[C@@H]2C(=O)C=C2[C@@H]3[C@@H](C)[C@H](C)CC[C@]3(C)CC[C@]21C`, for which the IC50 with A2780 [1] was found to be 35.4 µM; in assay [2] it was 42.7 µM; in assay [3] it was 41.7 µM; in the assay on HT-29 it was 34.1 µM; in assay [4] it was 38.2 µM.
Consider `CC(=O)O[C@@H]1CC[C@@]2(C)[C@@H](CC[C@]3(C)[C@@H]2C(=O)C=C2[C@@H]4[C@@H](C)[C@H](C)CC[C@]4(C)CC[C@]23C)[C@@]1(C)C(=O)O` [AKBA], for which the IC50 is 14.1 µM with A2780 [1]; 20.9 µM in assay [2]; 17.5 µM in assay [3]; 19.4 µM in the assay with HT-29; 16.9 µM in assay [4].
On the same counts, the results for `COC(=O)[C@@]1(C)/C(=N/O)CC[C@@]2(C)[C@H]1CC[C@]1(C)[C@@H]2C(=O)C=C2[C@@H]3[C@@H](C)[C@H](C)CC[C@]3(C)CC[C@]21C` are 18 µM, 13.7 µM, 16.4 µM, 15.4 µM and 15.5 µM.
The corresponding values for `COC(=O)[C@@]1(C)C=CC[C@@]2(C)[C@H]1CC[C@]1(C)[C@@H]2C(=O)C=C2[C@@H]3[C@@H](C)[C@H](C)CC[C@]3(C)CC[C@]21C` are 40.1 µM, 32.9 µM, 39.4 µM, 30.2 µM and 40.2 µM.
On the same counts, the results for `C[C@H]1[C@H](C)CC[C@]2(C)CC[C@]3(C)C(=CC=C4[C@@]5(C)CC[C@@H](O)[C@](C)(CO)[C@@H]5CC[C@]43C)[C@H]12` are 43.2 µM, 19.5 µM, 31.3 µM, 23.9 µM and 18.1 µM.
Regarding `COC(=O)[C@@]1(C)C(=O)C(O)=C[C@]2(C)[C@H]3C(=O)C=C4[C@@H]5[C@@H](C)[C@H](C)CC[C@]5(C)CC[C@@]4(C)[C@]3(C)CC[C@@H]12`, the concentration for half-maximal inhibition (IC50) with A2780 [1] turned out to be 41.1 µM; in assay [2], 34.1 µM; in assay [3] it was 39.7 µM; in the assay with HT-29 it was 29.9 µM; in assay [4], 42.3 µM.
On the same counts, the results for `C[C@H]1[C@H](C)CC[C@]2(C)CC[C@]3(C)C(=CC(=O)[C@@H]4[C@@]5(C)CCC(=O)[C@@H](C)[C@@H]5CC[C@]43C)[C@H]12` are 23.5 µM, 57.3 µM, 30.2 µM, 28.2 µM and 39.4 µM.
For the molecule `C[C@H]1[C@H](C)CC[C@]2(C)CC[C@]3(C)C(=CC(=O)[C@@H]4[C@@]5(C)CC[C@H](N)[C@](C)(C(=O)O)[C@@H]5CC[C@]43C)[C@H]12`, the result in the assay with A2780 [5] and in the assay with A2780 [6] was Active. The IC50 in the assay with A2780 [1] is 7.3 µM; in assay [2], 9.9 µM; in assay [3] it was 12.5 µM; in the assay with HT-29, 8.7 µM; in assay [4], 5.6 µM.

What is called IC50 is the concentration needed to halve the response being measured.

For the origin of these results see ChEMBL document CHEMBL3407364, “Synthesis and antitumor activity of ring A modified 11-keto-β-boswellic acid derivatives” (Eur J Med Chem, 2015).
